Data as given in ChEMBL document CHEMBL1201862, “PubChem BioAssay data set” (2004).
Calls of active or inactive are those of the source. For most assays here, no stated cut-off is given here; in the data, actives have a measured EC50 and inactives only a lower limit.

What was measured:
[1] = cells; assay type: functional, cell-based
[2] = C. albicans growth with fluconazole, confirmation, fluorescence, retest (AID 2467); assay type: functional, cell-based
[3] = cells; assay type: functional, cell-based; remark: listed apart in the source
[4] = Counterscreen for AddAB inhibitors: absorbance-based bacterial cell-based high throughput dose response assay for inhibitors of bacterial viability. [Related pubchem assays (depositor defined):AID435030, AID449728, AID449731, AID488942, AID488955, AID488956]; assay type: functional
[5] = biological target: Heat shock protein HSP 90-alpha (Homo sapiens, UniProt P07900); assay type: functional, organism-based
[6] = tested on: INS1; assay: beta cell apoptosis inhibitors, cytokine rescue, dose response, luminescence, retest (AID 449756); assay type: functional, cell-based; settings: Rattus norvegicus;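 further: cell death triggered by IL-1 beta plus TNF-alpha plus IFN-gamma mixture; protective hits raise ATP signal compared with cytokine alone wells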
[7] = tested on: Streptococcus sp. 'group A'; assay: growth inhibition of control SK(-) GAS strain, dose response, counter-screen for streptokinase expression inhibitor project, luminescence, kanamycin, BacTiterGlo, confirmation (AID 1900); assay type: functional, organism-based
[8] = tested on: Streptococcus; assay: Group A Streptococcus viability loss, dose response, counter-screen for streptokinase expression inhibitor project, luminescence, BacTiterGlo (AID 1915); assay type: functional, organism-based;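 further: potency for reduction of bacterial viability or growth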

Compound	EC50 [1]	EC50 [2]	EC50 [3]	IC50 [4]	AC50 [5]	AC50 [6]	EC50 [7]	EC50 [8]
Oc1c(C(c2ccccc2Cl)N2CCCC2)ccc2cccnc12 (configuration not stated)	27.4 µM (active)	1.08 µM (active)	> 350 µM (not active)	95.3 µM (inactive)	3.34 µM (active)	3.41 µM (active)	–	–
CCc1ccc(S(=O)(=O)/N=C2\C=C(Nc3ccc(C(=O)O)cc3)C(=O)c3ccccc32)cc1	–	–	–	–	–	11.3 µM (active)	0.451 µM (active)	6.26 µM (active)
COc1cccc(/C=N/Nc2ccc([N+](=O)[O-])cn2)c1O	> 350 µM (not active)	1.51 µM (active)	5.16 µM (active)	> 118 µM (inactive)	3.85 µM (active)	2.14 µM (active)	0.912 µM (active)	1.65 µM (active)
